Test results from patent US10870647B2, “Imidazopyridine derivative, method for preparing same, and pharmaceutical composition containing same as active ingredient for preventing or treating cancer” (DAEGU-GYEONGBUK MEDICAL INNOVATION FOUNDATION, priority 2016, dated 2020).

Tested on: STZ diabetes induced white mice
Test: Diabetes (streptozotocin) induced white mice
Assay type: in vivo, SD rats
Details: STZ + Example 11 (30 mg/kg), 8 weeks; Mean ± SE
Description: Blood was collected with a heparinized syringe before sacrificing the experimental animals. HbA1c was measured by using a DCA2000 HbA1c reagent kit (SIEMENS Healthcare Diagnostics, Inc., Tarrytown, N.Y., USA) and blood sugar was measured by using a glucometer (OneTouch Ultra, Johnson & Johnson co., CA, USA). The blood sample obtained above was centrifuged at 3000 rpm at 4° C. for 15 minutes to obtain serum. Serum cystatin C was measured by using an ELISA kit (R&D Systems, Minneapolis, Minn., USA). […]
Male SD white mice at 6-7 weeks of age (Japan SLC Inc., Hamamatsu, Japan) were used. Streptozotocin (STZ, 60 mg/kg, intraperitoneally administered) was administered to the experimental animals to induce type I diabetes. The STZ non-treated control group was treated with sodium citrate buffer (sodium citrate 100 mM, citric acid 100 mM, pH 4.5). To investigate the therapeutic effect of the compound of example 11, the compound was orally administered to the experimental animals for 8 weeks from the beginning of diabetes induction. The effect was compared with that of losartan (1 mg/kg/d) that is an angiotensin receptor antagonist being used clinically as a drug to treat diabetic nephropathy. The diabetic control (treated with STZ alone) was administered with the solvent of Example 11, DMSO/Tween 70.DW (10:5:85).
Table 8 below presents the body weight, kidney weight, ratio of kidney to body weight, HbA1C, blood sugar and urine amount (volume) of the mice of each group, which were measured 8 weeks after the treatment of control (non-treated with STZ), STZ, STZ+compound of Example 11 (30 mg/kg) and STZ+losartan (1 mg/kg).

Question: Which HbA1C does the source give for `Cc1ccc(C(=O)Nc2cccc(C(F)(F)F)c2)cc1C#Cc1cnc2c(Nc3cnn(C4CCNCC4)c3)cccn12` [Example 11, 4-methyl-3-((8-((1-(piperidin-4-yl)-1H-pyrazol-4-yl)amino)imidazo[1,2-a]pyridin-3-yl)ethynyl)-N-(3-(trifluoromethyl)phenyl)benzamide] here?
Answer: 6.7 ± 0.2 %

Question: And the Kidney?
Answer: 1.6 ± 0.1 g

Question: And the Urine volume?
Answer: 93.0 ± 12.5

Question: What about the Weight of the same compound?
Answer: 241 ± 16.0 g

Question: And the blood sugar?
Answer: 392 ± 33 mg/dL

Question: What about the kidney/Weight ratio of the same compound?
Answer: 0.7 ± 0.04
